Test results from ChEMBL document CHEMBL1143439, “Open-chain half-bastadins mimic the effects of cyclic bastadins on calcium homeostasis in cultured neurons” (Bioorg Med Chem Lett, 2008).
Activity calls are given as the source filed them. No cut-off for these calls is given here.

How the values were obtained:
Ryanodine receptor 1 = Ryanodine receptor 1 (Homo sapiens, UniProt P21817); experiment: Binding affinity to RYR1 channels by calcium mobilization assay
Rattus norvegicus [1] = species: Rattus norvegicus; experiment: Activity at RYR2 receptor in rat cerebellar granule neurons assessed activation of [45Ca2+] uptake at 20 uM after 10 mins
Rattus norvegicus [2] = species: Rattus norvegicus; experiment: Activity at RYR2 receptor in rat cerebellar granule neurons assessed as increase in intracellular calcium level at 20 uM; type: cell-based

Sequence of Ryanodine receptor 1 (P21817 whole entry): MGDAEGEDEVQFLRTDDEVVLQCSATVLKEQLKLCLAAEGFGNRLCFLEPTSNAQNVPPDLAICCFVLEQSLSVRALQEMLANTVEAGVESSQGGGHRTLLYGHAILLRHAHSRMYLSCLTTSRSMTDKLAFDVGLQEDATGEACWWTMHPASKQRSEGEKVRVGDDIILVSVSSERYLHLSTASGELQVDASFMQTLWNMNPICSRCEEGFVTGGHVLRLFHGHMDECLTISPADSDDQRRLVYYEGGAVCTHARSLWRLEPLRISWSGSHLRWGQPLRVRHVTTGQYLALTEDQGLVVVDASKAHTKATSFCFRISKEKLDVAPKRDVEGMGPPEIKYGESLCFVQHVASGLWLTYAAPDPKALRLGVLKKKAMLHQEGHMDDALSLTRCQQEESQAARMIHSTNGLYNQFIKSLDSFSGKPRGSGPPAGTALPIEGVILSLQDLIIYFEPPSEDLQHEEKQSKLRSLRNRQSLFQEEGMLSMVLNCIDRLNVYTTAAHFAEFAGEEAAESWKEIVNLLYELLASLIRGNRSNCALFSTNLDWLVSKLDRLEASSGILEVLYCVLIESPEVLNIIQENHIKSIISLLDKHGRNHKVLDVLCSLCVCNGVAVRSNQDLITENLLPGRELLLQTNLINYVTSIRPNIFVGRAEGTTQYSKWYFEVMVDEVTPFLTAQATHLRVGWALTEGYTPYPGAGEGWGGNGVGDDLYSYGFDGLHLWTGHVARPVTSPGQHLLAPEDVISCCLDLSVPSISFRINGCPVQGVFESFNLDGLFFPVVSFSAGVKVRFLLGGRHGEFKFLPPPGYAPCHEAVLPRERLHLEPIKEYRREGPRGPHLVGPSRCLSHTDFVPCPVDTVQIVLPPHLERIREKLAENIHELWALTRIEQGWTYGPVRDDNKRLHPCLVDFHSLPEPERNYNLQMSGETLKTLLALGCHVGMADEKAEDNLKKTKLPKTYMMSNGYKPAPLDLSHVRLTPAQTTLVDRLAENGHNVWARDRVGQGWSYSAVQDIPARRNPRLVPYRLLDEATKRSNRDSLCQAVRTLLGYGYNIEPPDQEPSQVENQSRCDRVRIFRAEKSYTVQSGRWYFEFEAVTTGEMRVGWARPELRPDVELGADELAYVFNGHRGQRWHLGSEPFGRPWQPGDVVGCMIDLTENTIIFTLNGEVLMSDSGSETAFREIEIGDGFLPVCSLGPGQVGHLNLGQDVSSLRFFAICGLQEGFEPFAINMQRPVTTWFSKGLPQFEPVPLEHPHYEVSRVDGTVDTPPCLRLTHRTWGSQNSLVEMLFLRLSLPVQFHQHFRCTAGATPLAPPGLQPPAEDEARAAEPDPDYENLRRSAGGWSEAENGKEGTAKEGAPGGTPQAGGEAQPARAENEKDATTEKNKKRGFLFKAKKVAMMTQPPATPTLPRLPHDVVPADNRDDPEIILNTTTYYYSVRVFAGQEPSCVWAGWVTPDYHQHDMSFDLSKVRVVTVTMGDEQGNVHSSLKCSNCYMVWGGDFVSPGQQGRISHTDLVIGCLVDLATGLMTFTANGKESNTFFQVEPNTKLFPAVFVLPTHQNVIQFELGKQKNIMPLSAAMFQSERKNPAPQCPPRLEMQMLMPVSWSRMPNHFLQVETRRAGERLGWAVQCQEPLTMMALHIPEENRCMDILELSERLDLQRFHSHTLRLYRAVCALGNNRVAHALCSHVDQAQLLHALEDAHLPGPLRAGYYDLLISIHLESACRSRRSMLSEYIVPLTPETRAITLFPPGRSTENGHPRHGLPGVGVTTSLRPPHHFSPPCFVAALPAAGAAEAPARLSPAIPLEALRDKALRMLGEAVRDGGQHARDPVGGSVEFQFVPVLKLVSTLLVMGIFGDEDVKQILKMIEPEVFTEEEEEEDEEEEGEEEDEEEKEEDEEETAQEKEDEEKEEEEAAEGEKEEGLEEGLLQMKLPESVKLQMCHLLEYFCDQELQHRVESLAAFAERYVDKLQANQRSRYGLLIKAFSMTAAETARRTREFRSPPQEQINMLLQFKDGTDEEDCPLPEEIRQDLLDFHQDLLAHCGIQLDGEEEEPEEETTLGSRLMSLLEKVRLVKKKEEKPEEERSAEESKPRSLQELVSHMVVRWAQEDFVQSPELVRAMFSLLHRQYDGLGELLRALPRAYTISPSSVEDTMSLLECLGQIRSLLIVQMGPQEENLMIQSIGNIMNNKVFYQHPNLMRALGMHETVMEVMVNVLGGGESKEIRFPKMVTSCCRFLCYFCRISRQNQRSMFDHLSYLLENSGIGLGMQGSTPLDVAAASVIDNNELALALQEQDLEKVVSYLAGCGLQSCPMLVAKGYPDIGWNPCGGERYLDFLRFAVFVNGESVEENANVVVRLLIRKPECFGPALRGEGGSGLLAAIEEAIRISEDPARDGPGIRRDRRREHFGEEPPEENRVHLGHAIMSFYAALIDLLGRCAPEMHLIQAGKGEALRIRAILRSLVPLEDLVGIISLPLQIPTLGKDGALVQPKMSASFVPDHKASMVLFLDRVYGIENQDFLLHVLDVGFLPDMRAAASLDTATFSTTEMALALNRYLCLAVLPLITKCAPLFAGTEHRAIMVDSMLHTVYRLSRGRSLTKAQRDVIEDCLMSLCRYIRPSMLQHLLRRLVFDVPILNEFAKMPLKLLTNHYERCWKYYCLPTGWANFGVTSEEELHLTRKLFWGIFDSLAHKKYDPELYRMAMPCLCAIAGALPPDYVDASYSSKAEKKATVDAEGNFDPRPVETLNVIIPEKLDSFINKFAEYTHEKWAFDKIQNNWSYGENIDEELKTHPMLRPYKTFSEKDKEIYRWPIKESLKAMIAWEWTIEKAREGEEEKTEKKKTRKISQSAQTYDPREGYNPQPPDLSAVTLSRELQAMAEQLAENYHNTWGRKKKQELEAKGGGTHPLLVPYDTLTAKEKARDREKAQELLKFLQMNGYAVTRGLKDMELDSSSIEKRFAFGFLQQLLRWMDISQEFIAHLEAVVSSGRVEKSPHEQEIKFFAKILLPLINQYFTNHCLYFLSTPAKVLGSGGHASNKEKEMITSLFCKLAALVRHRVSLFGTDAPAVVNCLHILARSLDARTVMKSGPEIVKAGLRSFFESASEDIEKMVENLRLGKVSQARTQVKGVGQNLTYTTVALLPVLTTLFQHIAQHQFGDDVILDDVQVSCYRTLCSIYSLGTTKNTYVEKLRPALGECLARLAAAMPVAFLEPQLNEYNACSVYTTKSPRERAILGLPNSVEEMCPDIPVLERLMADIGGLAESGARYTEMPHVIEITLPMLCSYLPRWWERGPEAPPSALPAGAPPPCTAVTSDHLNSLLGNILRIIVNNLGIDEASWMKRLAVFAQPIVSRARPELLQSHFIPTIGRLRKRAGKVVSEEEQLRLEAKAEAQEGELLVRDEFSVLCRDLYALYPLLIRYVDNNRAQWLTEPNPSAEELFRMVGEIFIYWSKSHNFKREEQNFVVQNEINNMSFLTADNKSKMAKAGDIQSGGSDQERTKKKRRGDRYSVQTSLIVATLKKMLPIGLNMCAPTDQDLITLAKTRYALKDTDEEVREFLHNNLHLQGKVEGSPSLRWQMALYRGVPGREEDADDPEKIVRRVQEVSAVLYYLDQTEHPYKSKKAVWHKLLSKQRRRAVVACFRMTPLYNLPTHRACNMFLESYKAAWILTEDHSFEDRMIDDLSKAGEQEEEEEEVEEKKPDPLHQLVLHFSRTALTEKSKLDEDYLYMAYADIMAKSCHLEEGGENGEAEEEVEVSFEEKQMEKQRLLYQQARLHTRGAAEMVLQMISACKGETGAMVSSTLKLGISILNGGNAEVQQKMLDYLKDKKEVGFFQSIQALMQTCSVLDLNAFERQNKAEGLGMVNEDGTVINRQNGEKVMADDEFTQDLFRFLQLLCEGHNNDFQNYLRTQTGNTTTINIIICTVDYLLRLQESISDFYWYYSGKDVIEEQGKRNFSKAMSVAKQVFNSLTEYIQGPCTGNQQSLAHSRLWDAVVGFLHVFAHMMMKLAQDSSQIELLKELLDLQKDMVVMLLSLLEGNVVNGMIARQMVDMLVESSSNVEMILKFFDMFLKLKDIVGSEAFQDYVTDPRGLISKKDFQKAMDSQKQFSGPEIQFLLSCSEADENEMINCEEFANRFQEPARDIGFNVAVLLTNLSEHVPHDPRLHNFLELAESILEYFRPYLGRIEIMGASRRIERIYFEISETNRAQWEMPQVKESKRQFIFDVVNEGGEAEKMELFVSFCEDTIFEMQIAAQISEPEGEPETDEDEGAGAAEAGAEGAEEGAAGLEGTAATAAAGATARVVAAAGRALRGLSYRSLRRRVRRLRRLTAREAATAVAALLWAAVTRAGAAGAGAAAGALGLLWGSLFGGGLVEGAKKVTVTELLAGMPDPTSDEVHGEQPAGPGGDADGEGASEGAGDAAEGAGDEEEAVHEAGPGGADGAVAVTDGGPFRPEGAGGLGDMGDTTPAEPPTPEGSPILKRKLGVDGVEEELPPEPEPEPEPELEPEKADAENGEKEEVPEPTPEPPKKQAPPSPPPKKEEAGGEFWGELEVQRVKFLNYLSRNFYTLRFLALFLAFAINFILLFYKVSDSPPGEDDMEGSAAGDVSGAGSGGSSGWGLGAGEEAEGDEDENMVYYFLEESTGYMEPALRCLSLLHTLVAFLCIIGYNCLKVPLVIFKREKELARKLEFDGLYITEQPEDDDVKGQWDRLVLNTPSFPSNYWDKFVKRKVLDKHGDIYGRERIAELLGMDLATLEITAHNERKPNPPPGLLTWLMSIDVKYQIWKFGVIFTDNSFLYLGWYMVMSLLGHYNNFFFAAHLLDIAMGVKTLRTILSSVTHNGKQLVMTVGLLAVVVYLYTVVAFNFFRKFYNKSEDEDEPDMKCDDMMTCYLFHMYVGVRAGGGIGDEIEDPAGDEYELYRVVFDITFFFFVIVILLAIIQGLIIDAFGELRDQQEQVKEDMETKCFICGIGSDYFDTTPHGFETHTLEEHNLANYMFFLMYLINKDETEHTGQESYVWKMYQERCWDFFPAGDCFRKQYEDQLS

SMILES	EC50 (Ryanodine receptor 1) [µM]	Activity (Rattus norvegicus [2])	IC50 (Ryanodine receptor 1) [µM]	Activity (Rattus norvegicus [1])
CCCCNC(=O)/C(Cc1cc(Br)c(Oc2cc(C/C(=N\O)C(=O)NCCCC)cc(Br)c2O)c(Br)c1)=N/O		Active		Active
O=C(NCCc1cc(Br)c(Oc2cc(NC(=O)c3ccccc3)ccc2O)c(Br)c1)c1ccccc1		inactive		
O=C1NCCc2cc(Br)c(O)c(c2)Oc2ccc(cc2Br)CCNC(=O)/C(=N\O)Cc2cc(Br)c(O)c(c2)Oc2c(Br)cc(cc2Br)C/C1=N/O		Active		Active

The next lines start with results.

EC50 (Ryanodine receptor 1) [µM]	Activity (Rattus norvegicus [2])	IC50 (Ryanodine receptor 1) [µM]	SMILES	Activity (Rattus norvegicus [1])
11			O=C1CCc2ccc(c(Br)c2)Oc2cc(cc(Br)c2O)CCN1	
		6	O=C1CCNC(=O)CCc2ccc(c(Br)c2)Oc2cc(cc(Br)c2O)CCN1	
